In ChEMBL document CHEMBL2413072, “Synthesis and in vitro anticancer studies of novel C-2 arylidene congeners of lantadenes” (2013):

Key:
Format in all cases: functional
SK-OV-3 [1] = assay: Growth inhibition of human SKOV3 cells assessed as cell growth at 10^-4 M by sulforhodamine B assay; details: read-out: Activity
OVCAR-3 = assay: Growth inhibition of human OVCAR3 cells assessed as cell growth at 10^-4 M by sulforhodamine B assay; details: read-out: Activity
TK-10 = assay: Growth inhibition of human TK10 cells assessed as cell growth at 10^-6 M by sulforhodamine B assay; details: read-out: Activity
HCT-116 [2] = assay: Growth inhibition of human HCT116 cells assessed as cell growth at 10^-7 M by sulforhodamine B assay; details: read-out: Activity
NCI-H460 = assay: Growth inhibition of human NCI-H460 cells by sulforhodamine B assay
M14 = assay: Growth inhibition of human M14 cells assessed as cell growth at 10^-4 M by sulforhodamine B assay; details: read-out: Activity
NCI-H522 [3] = assay: Growth inhibition of human NCI-H522 cells by sulforhodamine B assay
OVCAR-8 [4] = assay: Growth inhibition of human OVCAR8 cells assessed as cell growth at 10^-8 M by sulforhodamine B assay; details: read-out: Activity
T47D = assay: Growth inhibition of human T47D cells assessed as cell growth at 10^-4 M by sulforhodamine B assay; details: read-out: Activity
IGROV-1 = assay: Growth inhibition of human IGROV1 cells by sulforhodamine B assay
HL-60(TB) = assay: Growth inhibition of human HL-60(TB) cells assessed as cell growth at 10^-6 M by sulforhodamine B assay; details: read-out: Activity
OVCAR-8 [5] = assay: Growth inhibition of human OVCAR8 cells assessed as cell growth at 10^-7 M by sulforhodamine B assay; details: read-out: Activity
HT-29 = assay: Growth inhibition of human HT-29 cells assessed as cell growth at 10^-7 M by sulforhodamine B assay; details: read-out: Activity
ACHN = assay: Growth inhibition of human ACHN cells assessed as cell growth at 10^-6 M by sulforhodamine B assay; details: read-out: Activity
NCI-H522 [6] = assay: Growth inhibition of human NCI-H522 cells assessed as cell growth at 10^-4 M by sulforhodamine B assay; details: read-out: Activity
SNB-75 [7] = assay: Growth inhibition of human SNB75 cells assessed as cell growth at 10^-8 M by sulforhodamine B assay; details: read-out: Activity
SR = assay: Growth inhibition of human SR cells assessed as cell growth at 10^-7 M by sulforhodamine B assay; details: read-out: Activity
MCF7 [8] = assay: Growth inhibition of human MCF7 cells assessed as cell growth at 10^-6 M by sulforhodamine B assay; details: read-out: Activity
KM12 = assay: Growth inhibition of human KM12 cells assessed as cell growth at 10^-8 M by sulforhodamine B assay; details: read-out: Activity
NCI-H226 = assay: Growth inhibition of human NCI-H226 cells assessed as cell growth at 10^-6 M by sulforhodamine B assay; details: read-out: Activity
SN12C = assay: Growth inhibition of human SN12C cells assessed as cell growth at 10^-7 M by sulforhodamine B assay; details: read-out: Activity
Malme-3M = assay: Growth inhibition of human MALME-3M cells assessed as cell growth at 10^-7 M by sulforhodamine B assay; details: read-out: Activity
OVCAR-5 = assay: Growth inhibition of human OVCAR5 cells assessed as cell growth at 10^-4 M by sulforhodamine B assay; details: read-out: Activity
SNB-19 = assay: Growth inhibition of human SNB19 cells by sulforhodamine B assay
CAKI-1 = assay: Growth inhibition of human CAKI-1 cells assessed as cell growth at 10^-7 M by sulforhodamine B assay; details: read-out: Activity
HCT-116 [9] = assay: Growth inhibition of human HCT116 cells assessed as cell growth at 10^-8 M by sulforhodamine B assay; details: read-out: Activity
RXF 393 = assay: Growth inhibition of human RXF393 cells assessed as cell growth at 10^-4 M by sulforhodamine B assay; details: read-out: Activity
[10] = Growth inhibition of human Hs 578T cells assessed as cell growth at 10^-4 M by sulforhodamine B assay; details: read-out: Activity
UO-31 = assay: Growth inhibition of human UO31 cells assessed as cell growth at 10^-4 M by sulforhodamine B assay; details: read-out: Activity
SK-OV-3 [11] = assay: Growth inhibition of human SKOV3 cells assessed as cell growth at 10^-6 M by sulforhodamine B assay; details: read-out: Activity
SK-MEL-2 = assay: Growth inhibition of human SK-MEL-2 cells assessed as cell growth at 10^-7 M by sulforhodamine B assay; details: read-out: Activity
UACC-62 = assay: Growth inhibition of human UACC62 cells by sulforhodamine B assay
SNB-75 [12] = assay: Growth inhibition of human SNB75 cells assessed as cell growth at 10^-7 M by sulforhodamine B assay; details: read-out: Activity
OVCAR-8 [13] = assay: Growth inhibition of human OVCAR8 cells assessed as cell growth at 10^-4 M by sulforhodamine B assay; details: read-out: Activity
LOX IMVI [14] = assay: Growth inhibition of human LOXIMVI cells assessed as cell growth at 10^-6 M by sulforhodamine B assay; details: read-out: Activity
HCT-116 [15] = assay: Growth inhibition of human HCT116 cells assessed as cell growth at 10^-4 M by sulforhodamine B assay; details: read-out: Activity
K562 = assay: Growth inhibition of human K562 cells assessed as cell growth at 10^-4 M by sulforhodamine B assay; details: read-out: Activity
OVCAR-8 [16] = assay: Growth inhibition of human OVCAR8 cells by sulforhodamine B assay
HOP-62 = assay: Growth inhibition of human HOP62 cells assessed as cell growth at 10^-4 M by sulforhodamine B assay; details: read-out: Activity
LOX IMVI [17] = assay: Growth inhibition of human LOXIMVI cells assessed as cell growth at 10^-8 M by sulforhodamine B assay; details: read-out: Activity
MCF7 [18] = assay: Growth inhibition of human MCF7 cells assessed as cell growth at 10^-4 M by sulforhodamine B assay; details: read-out: Activity
CCRF-CEM = assay: Growth inhibition of human CCRF-CEM cells assessed as cell growth at 10^-7 M by sulforhodamine B assay; details: read-out: Activity
MDA-MB-435 = assay: Growth inhibition of human MDA-MB-435 cells assessed as cell growth at 10^-6 M by sulforhodamine B assay; details: read-out: Activity
[19] = read-out: LC50 (the source's name)
[20] = read-out: pLC50 (the source's name) (converted)

Work on CC(C)=CC(=O)O[C@@H]1CC(C)(C)C[C@H]2C3=CC[C@@H]4[C@@]5(C)CCC(=O)C(C)(C)[C@@H]5CC[C@@]4(C)[C@]3(C)CC[C@@]12C(=O)O yielded a growth at 100 µM (SK-OV-3 [1]) of 15%, a growth at 100 µM (OVCAR-3) of -73% and a growth at 1 µM (TK-10) of 98%. For the same molecule, the growth at 0.1 µM (HCT-116 [2]) was 98%, the GI50 (NCI-H460; read-out: GI50) was 2.21 µM and the LC50 (NCI-H460; read-out: LC50) was 85.5 µM. The TGI (NCI-H460; read-out: TGI) was 14.6 µM, the GI50 (NCI-H460; read-out: pGI50 (converted)) was 2.19 µM and the LC50 (NCI-H460; read-out: pLC50 (converted)) was 85.1 µM. It also gave a TGI (NCI-H460; read-out: pTGI (converted)) of 14.5 µM, a growth at 100 µM (M14) of -62% and a GI50 (NCI-H522 [3]; read-out: GI50) of 3.14 µM. For the same molecule, the CC50 (NCI-H522 [3]; [19]) was greater than 100 µM, the TGI (NCI-H522 [3]; read-out: TGI) was 29.4 µM and the GI50 (NCI-H522 [3]; read-out: pGI50 (converted)) was 3.16 µM. It also gave a CC50 (NCI-H522 [3]; [20]) greater than 100 µM, a TGI (NCI-H522 [3]; read-out: pTGI (converted)) of 29.5 µM and a growth at 0.01 µM (OVCAR-8 [4]) of 95%. It also gave a growth at 100 µM (T47D) of 23%, a GI50 (IGROV-1; read-out: GI50) of 5.36 µM and a CC50 (IGROV-1; [19]) greater than 100 µM. The TGI (IGROV-1; read-out: TGI) was 38.4 µM, the GI50 (IGROV-1; read-out: pGI50 (converted)) was 5.37 µM and the CC50 (IGROV-1; [20]) was greater than 100 µM. For the same molecule, the TGI (IGROV-1; read-out: pTGI (converted)) was 38 µM, the growth at 1 µM (HL-60(TB)) was 94% and the growth at 0.1 µM (OVCAR-8 [5]) was 96%. It also gave a growth at 0.1 µM (HT-29) of 95%, a growth at 1 µM (ACHN) of 73% and a growth at 100 µM (NCI-H522 [6]) of -20%. The growth at 0.01 µM (SNB-75 [7]) was 90%, the growth at 0.1 µM (SR) was 99% and the growth at 1 µM (MCF7 [8]) was 84%. For the same molecule, the growth at 0.01 µM (KM12) was 101%, the growth at 1 µM (NCI-H226) was 81% and the growth at 0.1 µM (SN12C) was 96%. For the same molecule, the growth at 0.1 µM (Malme-3M) was 90%, the growth at 100 µM (OVCAR-5) was -39% and the GI50 (SNB-19; read-out: GI50) was 4.25 µM. It also gave a CC50 (SNB-19; [19]) greater than 100 µM, a TGI (SNB-19; read-out: TGI) greater than 100 µM and a GI50 (SNB-19; read-out: pGI50 (converted)) of 4.27 µM. For the same molecule, the CC50 (SNB-19; [20]) was greater than 100 µM, the TGI (SNB-19; read-out: pTGI (converted)) was greater than 100 µM and the growth at 0.1 µM (CAKI-1) was 93%. For the same molecule, the growth at 0.01 µM (HCT-116 [9]) was 98%, the growth at 100 µM (RXF 393) was -67% and the growth at 100 µM [10] was -10%. The growth at 100 µM (UO-31) was -13%, the growth at 1 µM (SK-OV-3 [11]) was 108% and the growth at 0.1 µM (SK-MEL-2) was 94%. The GI50 (UACC-62; read-out: GI50) was 2.47 µM, the CC50 (UACC-62; [19]) was 48.5 µM and the TGI (UACC-62; read-out: TGI) was 14.2 µM. The GI50 (UACC-62; read-out: pGI50 (converted)) was 2.45 µM, the CC50 (UACC-62; [20]) was 49 µM and the TGI (UACC-62; read-out: pTGI (converted)) was 14.1 µM. It also gave a growth at 0.1 µM (SNB-75 [12]) of 90%, a growth at 100 µM (OVCAR-8 [13]) of 11% and a growth at 1 µM (LOX IMVI [14]) of 87%. It also gave a growth at 100 µM (HCT-116 [15]) of -6%, a growth at 100 µM (K562) of 15% and a GI50 (OVCAR-8 [16]; read-out: GI50) of 3.81 µM. The CC50 (OVCAR-8 [16]; [19]) was greater than 100 µM, the TGI (OVCAR-8 [16]; read-out: TGI) was greater than 100 µM and the GI50 (OVCAR-8 [16]; read-out: pGI50 (converted)) was 3.8 µM. For the same molecule, the CC50 (OVCAR-8 [16]; [20]) was greater than 100 µM, the TGI (OVCAR-8 [16]; read-out: pTGI (converted)) was greater than 100 µM and the growth at 100 µM (HOP-62) was -21%. The growth at 0.01 µM (LOX IMVI [17]) was 98%, the growth at 100 µM (MCF7 [18]) was 2% and the growth at 0.1 µM (CCRF-CEM) was 99%. It also gave a growth at 1 µM (MDA-MB-435) of 92%.
